Measurements reported in patent US12257214B2, “Compositions and methods comprising deoxy-pentitols” (The Charlotte Mecklenburg Hospital Authority, priority 2021, dated 2025).

How the values were obtained:
Type in all cases: cell-based
[1] = tested on: CCF-STTG1; experiment: ATPlite cell IC50 screening, CCF-STTG1; details: Homo sapiens; CCF-STTG1, Astrocytoma; ATPlite luminescence
Protocol: (§1) In brief, the cells were cultures in relevant medium and treated with a range of 9 doses of 2-deoxyribitol, from 10 mM, 5 mM, 2.5 mM, 1.25 mM, 0.62 mM, 0.31 mM, 0.08 mM, and 0.04 mM. Cells were diluted in the corresponding ATCC recommended medium and dispensed in a 384-well plate, depending on the cell line used, at a density of 100-6400 cells per well in 45 μl medium. For each used cell line the optimal cell density was used. The margins of the plate were filled with phosphate-buffered saline. Plated cells were incubated in a humidified atmosphere of 5% CO2 at 37° C. After 24 hours, 5 μl of compound dilution was added and plates were further incubated. At the end of experiment (t=end), 24 μl of ATPlite 1Step™ (PerkinElmer) solution was added to each well, and subsequently shaken for 2 minutes. After 10 minutes of incubation in the dark, the luminescence was recorded on an Envision multimode reader (PerkinElmer). IC50 was determined in comparison with the control samples. The cell lines tested and their corresponding disease model is indicated the left-most and middle columns, respectively. IC50 values are given in μM values in the right-most column. This screening was performed of a list of cancer cells to establish IC50 values for each of the cancer cell lines. This screening provides evidence for the potential of 2DR to treat many cancer types.

[2] = tested on: RKO; experiment: ATPlite cell IC50 screening, RKO; details: Homo sapiens, Colon carcinoma, ATPlite luminescence
Protocol: as §1

[3] = tested on: DLD-1; experiment: ATPlite cell IC50 screening, DLD-1; details: Homo sapiens; DLD-1, Colon adenocarcinoma; ATPlite luminescence
Protocol: as §1

[4] = tested on: MIA PaCa-2; experiment: ATPlite cell IC50 screening, MIA PaCa-2; details: Homo sapiens; MIA PaCa-2, Pancreatic ductal adenocarcinoma; ATPlite luminescence
Protocol: as §1

[5] = tested on: VA-ES-BJ; experiment: ATPlite cell IC50 screening, VA-ES-BJ; details: Epithelioid sarcoma, ATPlite luminescence
Protocol: as §1

[6] = tested on: breast cancer T47D cells; experiment: T47D cell growth
Protocol: Less than 50% of cells and 10% of cells were detected with the treatment of 10 mM and 50 mM 2-deoxyribitol, respectively.

[7] = tested on: G-361; experiment: ATPlite cell IC50 screening, G-361; details: Homo sapiens; G-361, Melanoma; ATPlite luminescence
Protocol: as §1

[8] = tested on: MCF7 cells; experiment: Mammosphere formation (FIG. 4)
Protocol: Cells were also treated with Vitamin C (VitC) at a concentration of 50 μM for 5 days (5d) and then returned to normal medium (NM) for 6 days (d6), without (lower left panel) or with 2-deoxyribitol (Drug, lower right panel). The formation of cancer mammospheres, considered to be cancer stem cell-rich population, can be seen in culture without Drug treatment, and with Vitamin C treatment only. Drug treatment greatly reduces to eliminates the formation of cancer mammospheres.
To examine mammosphere formation, MCF7 cells were grown for 11 days with or without 2-deoxyribitol (drug) treatment (FIG. 4, top panels). In addition, MCF7 cells were treated with Vitamin C at the concentration of 50 μM for 5 days and then returned to normal medium (“NM”) for 6 days (FIG. 4, lower panels).

[9] = tested on: MOLT-4; experiment: ATPlite cell IC50 screening, MOLT-4; details: Homo sapiens; MOLT-4, Adult T acute lymphoblastic leukemia; ATPlite luminescence
Protocol: as §1

[10] = tested on: JAR; experiment: ATPlite cell IC50 screening, JAR; details: Gestational choriocarcinoma, ATPlite luminescence
Protocol: as §1

[11] = tested on: ACHN; experiment: ATPlite cell IC50 screening, ACHN; details: Homo sapiens, Papillary renal cell carcinoma, ATPlite luminescence
Protocol: as §1

[12] = tested on: RS4-11; experiment: ATPlite cell IC50 screening, RS4-11; details: Homo sapiens; RS4-11, Adult B acute lymphoblastic leukemia; ATPlite luminescence
Protocol: as §1

[13] = tested on: SW620; experiment: ATPlite cell IC50 screening, SW620; details: Homo sapiens, SW-620; SW620, Colon adenocarcinoma; ATPlite luminescence
Protocol: as §1

[14] = tested on: A-204; experiment: ATPlite cell IC50 screening, A-204; details: Homo sapiens, A204; A-204, Embryonal rhabdomyosarcoma; ATPlite luminescence
Protocol: as §1

[15] = tested on: RPMI-7951; experiment: ATPlite cell IC50 screening, RPMI-7951; details: Homo sapiens; RPMI-7951, Melanoma; ATPlite luminescence
Protocol: as §1

[16] = tested on: hepatocarcinoma HEPG2 cells; experiment: HEPG2 cell culture, growth and death (FIG. 6)
Protocol: The cells grow into large sheets (Control; top left panel), but remain tightly packed with limited cytoplasm. Cells were treated with 5 mM (top middle panel), 10 mM (top right panel), 20 mM (bottom left panel), or 40 mM (bottom right panel) 2-deoxyribitol (Drug). A dose-dependent decrease in cell density and increase in volume of cytoplasm is observed with the drug treatment.
2-deoxyribitol was also found to be effective at inhibiting the growth of and inducing cell death in the hepatocarcinoma cell HEPG2. […] HEPG2 cells have a clonal growth pattern with tightly-packed cells growing out to fill the surrounding empty space. […] Small numbers of cell death were also detected in the remaining narrow areas where the size of the cells was relatively smaller than those of surrounding cells.

[17] = tested on: BxPC-3; experiment: ATPlite cell IC50 screening, BxPC-3; details: Homo sapiens; BxPC-3, Pancreatic ductal adenocarcinoma; ATPlite luminescence
Protocol: as §1

[18] = tested on: breast cancer cell line MCF7; experiment: MCF7 cell culture, growth and death (FIG. 2); details: 3 day treatment
Protocol: From left-top-to-bottom: Control, 0.4 mM Drug, 2 mM rib, and 10 mM Drug; From right-top-to-bottom: 0.4 mM rib; 2 mM Drug; 10 mM rib; and 50 mM Drug.
However, this effect was not related to the enhanced expression of glycosylation of α-DG.

[19] = tested on: DU4475; experiment: ATPlite cell IC50 screening, DU4475; details: Homo sapiens, DU-4475; DU4475, Breast carcinoma; ATPlite luminescence
Protocol: as §1

[20] = tested on: A-498; experiment: ATPlite cell IC50 screening, A-498; details: Homo sapiens, A498; A-498, Renal cell carcinoma; ATPlite luminescence
Protocol: as §1

[21] = tested on: PC-3; experiment: ATPlite cell IC50 screening, PC-3; details: Homo sapiens; PC-3, Prostate carcinoma; ATPlite luminescence
Protocol: as §1

[22] = tested on: RL; experiment: ATPlite cell IC50 screening, RL; details: Homo sapiens, Diffuse large B-cell lymphoma, ATPlite luminescence
Protocol: as §1

## OCC[C@H](O)[C@H](O)CO [2-deoxyribitol]
[1]
  IC50: 5.84 mM
[2]
  IC50: 5.77 mM
[3]
  IC50: 4.53 mM
[4]
  IC50: 4.87 mM
[5]
  IC50: 5.28 mM
[6]
  inhibiting cell growth: had an effect on inhibiting cell growth
[7]
  IC50: > 10 mM
[8]; MCF7, Vitamin C 50 μM 5 days, then 6 day treatment with 2-deoxyribitol
  number of mammospheres after Vitamin C pre-treatment: decreased dramatically
[8]; MCF7 grown 11 days, 5 mM
  formation of mammospheres: no spheres were seen
[9]
  IC50: 4.94 mM
[10]
  IC50: 3.6 mM
[11]
  IC50: 3.14 mM
[12]
  IC50: 3.06 mM
[13]
  IC50: 5.22 mM
[14]
  IC50: 6.06 mM
[15]
  IC50: 6.77 mM
[16]; HEPG2, 5-40 mM
  effect on number of cells and cytoplasm: decreased the number of cells with increasing amount of cytoplasm dose-dependently
[16]; HEPG2, majority of cells, dose of 20 mM or higher
  cell size relative to control cells: three or more times larger
[17]
  IC50: 7.81 mM
[18]; MCF7, 0.4-50 mM
  effect on cell growth, death and morphology: dose-dependent inhibition in cell growth and increase in cell death
[18]; MCF7, dose of 10 mM or higher
  cells survive compared to the control: about 10%
[19]
  IC50: 5.72 mM
[20]
  IC50: 8.73 mM
[21]
  IC50: 3.68 mM
[22]
  IC50: 3.4 mM
